Results: patent EP4803523A1, “FUSED HETEROARYL COMPOUND, PREPARATION METHOD THEREFOR, AND USE THEREOF IN MEDICINE” (Jiangsu Hengrui Pharmaceuticals Co., Ltd., priority 2023, dated 2025)

Assays:
AGS = assay: 3D cell proliferation inhibition assay (CellTiter-Glo 3D); assay type: cell-based; conditions: Homo sapiens, 120 h; AGS cells, KRAS G12D, 3D culture, 5 days with compound
Description: (§1) This experiment uses the cells listed in the table below to evaluate the inhibitory effects of the compounds on the proliferation of KRAS mutant or KRAS amplified cells.
(§2) On the first day of the experiment, cells that were growing well and had reached 70%-80% confluence were digested, resuspended in culture medium, and the cell density was adjusted to the desired level. In a U-shaped low-attachment 96-well plate (Corning, 7007), 90 µL of cell suspension was added per well, with the cell density as shown in the table above. The cell plate was centrifuged at 2500 rpm for 5 minutes and then placed in an incubator for 24 hours of culture. On the second day, the 20 mM test compound dissolved in DMSO was diluted with DMSO to the first concentration of 2 or 0.2 mM, and then serially diluted in a 5-fold gradient to obtain 9 concentration points, with the control well containing DMSO. The serially diluted compound was then further diluted 20-fold with culture medium. 10 µL of the test compound diluted in culture medium was added to each well of the cell plate. The final concentrations of the compound were 9 points in a 5-fold serial dilution starting from 10 or 1 µM. Cell wells containing 0.5% DMSO were set as vehicle control wells, and wells containing only culture medium and 0.5% DMSO were set as blank control wells. The cell plate was centrifuged at 2000 rpm for 3 minutes and then placed in an incubator for 5 days of culture. On the seventh day, the 96-well cell culture plate was taken out, and 50 µL of the luminescent cell viability detection reagent, CellTiter-Glo® 3D Cell Viability Assay (Promega, G9683), was added to each well. After shaking at room temperature for 25 minutes, the mixture was pipetted up and down to mix, and 100 µL was transferred from each well to a white, opaque-bottom OptiPlate™-96 well plate (PerkinElmer, 6005290). The luminescence signal value was read using a multimode microplate reader (PerkinElmer, EnVision2105).
(§3) The inhibition rate was calculated using the following formula: Inhibition rate = (Luminescence value vehicle control well - Luminescence value test compound)/(Luminescence value vehicle control well - Luminescence value blank control well) × 100%. The IC50 values of the compound inhibitory activity were calculated using Graphpad Prism software. Table 1. Data of inhibitory activity on 3D cell proliferation (unit: nM)

AsPC-1 = assay: as above; assay type: cell-based; conditions: Homo sapiens, ASPC1, 120 h; AsPC-1 cells, KRAS G12D, 3D culture, 5 days with compound
Description: as §1, §2, §3

GP2d = assay: as above; assay type: cell-based; conditions: GP2d, 120 h, GP2d cells, KRAS G12D, 3D culture, 5 days with compound
Description: as §1, §2, §3

MKN1 = assay: as above; assay type: cell-based; conditions: Homo sapiens, MKN-1, 120 h; MKN1 cells, KRAS Amp, 3D culture, 5 days with compound
Description: as §1, §2, §3

SW620 = assay: as above; assay type: cell-based; conditions: Homo sapiens, SW-620, 120 h; SW620 cells, KRAS G12V, 3D culture, 5 days with compound
Description: as §1, §2, §3

[1] = Pharmacokinetic evaluation, mouse experiment (oral gavage, plasma LC-MS/MS); assay type: in vivo; conditions: balb/c nude mice, female, oral gavage (i.g.), 20.0 mg/kg
Description: Using balb/c nude mice as the test animals, the plasma concentrations of the example compounds at different time points were determined by LC-MS/MS following oral gavage (i.g.) administration. The pharmacokinetic behaviours of the compounds of the present disclosure in mice were investigated, and their pharmacokinetic profiles were evaluated.
Nine balb/c nude mice, female, were provided by Beijing Vital River Laboratory Animal Technology Co., Ltd. (Production License Number: SCXK(Zhejiang) 2024-0001).
A given amount of the test compound was weighed and formulated with 5% DMF + 45% PG + 50% (10% HS15-pH7.4 buffer) to prepare a 2.0 mg/mL clear and colourless solution.
The administration dose was 20.0 mg/kg, and the administration volume was 10 mL/kg.
Blood samples (0.1 ml) were collected from the orbit before administration and at 0.25, 0.5, 1.0, 2.0, 4.0, 6.0, 8.0, 11.0, and 24.0 hours after administration. The samples were placed in EDTA-K2 anticoagulant tubes, centrifuged at 10,000 rpm for 1 minute (4°C), and the plasma was separated within 1 hour and stored at -20°C or -80°C until analysis. The entire process from blood collection to centrifugation was performed in ice bath conditions. Food was provided 2 hours after administration.
The concentration of the test compound in mouse plasma after administration was determined as follows: 20 µL of the plasma sample collected at each time point after administration was taken, and 200 µL of internal standard acetonitrile solution (containing 20 ng/mL verapamil) was added. The mixture was vortexed and then centrifuged at 4000 rpm for 15 minutes; the supernatant was taken for LC-MS/MS analysis.

in vivo = conditions: both, SD, rat, plasma, po
Description: Using SD rats as the test animals, the plasma concentrations of the example compounds at different time points were determined by LC-MS/MS following oral gavage (i.g.) administration. The pharmacokinetic behaviours of the compounds of the present disclosure in rats were investigated, and their pharmacokinetic profiles were evaluated.
Blood samples (0.2 mL) were collected from the orbit before administration and at 0.25, 0.5, 1.0, 2.0, 4.0, 6.0, 8.0, 11.0, and 24.0 hours after administration. The samples were placed in EDTA-K2 anticoagulant tubes, centrifuged at 10,000 rpm for 2 minute (4°C), and the plasma was separated within 1 hour and stored at -20°C or -80°C until analysis. The entire process from blood collection to centrifugation was performed in ice bath conditions.
The mixture was vortexed and then centrifuged at 4000 rpm for 15 minutes; the supernatant was taken for LC-MS/MS analysis. […] The mixture was vortexed and then centrifuged at 3700 rpm for 10 minutes; the supernatant was taken for LC-MS/MS analysis.
The mixture was vortexed and then centrifuged at 4000 rpm for 15 minutes; the supernatant was taken for LC-MS/MS analysis. […] The mixture was vortexed and then centrifuged at 4000 rpm for 15 minutes; the supernatant was taken for LC-MS/MS analysis.

H358 = assay: 3D cell proliferation inhibition assay (CellTiter-Glo 3D); assay type: cell-based; conditions: Homo sapiens, NCI-H358, 120 h; H358 cells, KRAS G12C, 3D culture, 5 days with compound
Description: as §1, §2, §3

SMILES	IC50 (AGS)	IC50 (AsPC-1)	IC50 (GP2d)	IC50 (MKN1)	IC50 (SW620)	IC50 (H358)	further results
N#Cc1c(N)sc2c(F)ccc(-c3c4c(c5cnc(OCC67CCCN6CC(=CF)C7)nc5c3F)COC4)c12 (centres unmarked) [Example 15, 2-Amino-7-fluoro-4-(5-fluoro-3-((2-(fluoromethylene)tetrahydro-1H-pyrrolizin-7a(5H)-yl)methoxy)-7,9-dihydrofuro[3,4-f]quinazolin-6-yl)benzo[b]thiophene-3-carbonitrile]	9.12 nM	14.7 nM	1.71 nM	6.9 nM	7.9 nM	–	–
C[C@@H](O)CN1CC2CCC(C1)N2c1nc(OCC2(CN3CCC(=C(F)F)CC3)CC2)nc2c(F)c(-c3ncc(F)c4sc(N)c(C#N)c34)c3c(c12)COC3 [Example 2, 2-amino-4-(3-((1-((4-(difluoromethylene)piperidin-1-yl)methyl)cyclopropyl)methoxy)-5-fluoro-1-(3-((R)-2-hydroxypropyl)-3,8-diazabicyclo[3.2.1]oct-8-yl)-7,9-dihydrofuro[3,4-f]quinazolin-6-yl)-7-fluorothieno[3,2-c]pyridine-3-carbonitrile]	2.36 nM	6.18 nM	1.79 nM	–	–	–	Vd/F ([1]; read-out: Apparent volume of distribution Vz/F): 9.07 L/kg; AUC(0-t) ([1]; read-out: Area under the curve AUC0-t): 9100 ng·h/mL; CL/F ([1]; read-out: Clearance CL/F): 36.5 mL/min/kg; half-life ([1]; read-out: Half life T1/2 (converted)): 2.87 h; Cmax ([1]; read-out: Plasma concentration Cmax): 1060 ng/mL; AUC(0-t) (in vivo; 20 mg/kg): 5170 ng·h/mL; CL/F (in vivo; 20 mg/kg): 65.5 mL/min/kg; Cmax (in vivo; 20 mg/kg): 377 ng/mL; Vd/F (in vivo; 20 mg/kg): 28 L/kg; half-life (in vivo; 20 mg/kg): 5.52 h; AUC(0-t) (in vivo; 40 mg/kg): 17600 ng·h/mL; CL/F (in vivo; 40 mg/kg): 36.7 mL/min/kg; Cmax (in vivo; 40 mg/kg): 1170 ng/mL; Vd/F (in vivo; 40 mg/kg): 19.6 L/kg; half-life (in vivo; 40 mg/kg): 6.7 h
N#Cc1c(N)sc2c(F)ccc(-c3c4c(c5cnc(OCC67CCCN6CC(=C(F)F)C7)nc5c3F)COC4)c12 (centres unmarked) [Example 27, 2-Amino-4-(3-((2-(difluoromethylene)tetrahydro-1H-pyrrolizin-7a(5H)-yl)methoxy)-5-fluoro-7,9-dihydrofuro[3,4-f]quinazolin-6-yl)-7-fluorobenzo[b]thiophene-3-carbonitrile]	–	–	6.61 nM	8.2 nM	12.4 nM	8.85 nM	–
N#Cc1c(N)sc2c(F)ccc(-c3c4c(c5cnc(OCC67CCCN6CC(=C(F)F)C7)nc5c3F)COC4)c12 (single isomer, unassigned) [Example 44A]	5.03 nM	8.36 nM	2.59 nM	1.3 nM	3.4 nM	2.78 nM	–
N#Cc1c(N)sc2c(F)ccc(-c3c4c(c5cnc(OCC6(CN7CCC(=CF)CC7)CC6)nc5c3Cl)COC4)c12 [Example 39, 2-Amino-4-(5-chloro-3-((1-((4-(fluoromethylene)piperidin-1-yl)methyl)cyclopropyl)methoxy)-7,9-dihydrofuro[3,4-f]quinazolin-6-yl)-7-fluorobenzo[b]thiophene-3-carbonitrile]	4.07 nM	7.65 nM	2.95 nM	4 nM	12.7 nM	4.76 nM	–
N#Cc1c(N)sc2c(F)ccc(-c3c4c(c5c(C6CC6)nc(OC[C@@]67CCCN6C[C@H](F)C7)nc5c3F)COC4)c12 [Example 36, 2-Amino-4-(1-cyclopropyl-5-fluoro-3-(((2R,7aS)-2-fluorotetrahydro-1H-pyrrolizin-7a(5H)-yl)methoxy)-7,9-dihydrofuro[3,4-f]quinazolin-6-yl)-7-fluorobenzo[b]thiophene-3-carbonitrile]	–	–	–	–	10.1 nM	8.04 nM	–
